Results: patent US20090221540A1, “Method of Treating An Acute Vascular Disorder” (PANTARHEI BIOSCIENCE B.V., priority 2006, published 2009)
Like-named read-outs stand apart in the source and are kept apart here. Each block holds one compound with its values, some of them ahead of it.

Key:
[1] = tested on: coronary and cerebral arteries; details: in vitro; cited from earlier work
[2] = single oral dose pharmacokinetics study of estetrol in healthy postmenopausal volunteers; assay type: in vivo, human; details: for Cmax: po
Procedure: (§1) A double-blind, randomized, placebo-controlled, single dose study was performed to determine the safety, tolerability and pharmacokinetics of 1, 10 and 100 mg orally administered estetrol in healthy postmenopausal volunteers (menopause defined as ≧12 months amenorrhea or six months amenorrhea with serum FSH levels ≧40 IU/L and serum E2<73 pmol/L), a Body Mass Index of 18-30 kg/m^2, non-smoking, good physical and mental health as judged by the investigator determined by medical history, physical examination, clinical laboratory, vital signs and ECG recording). In each dose group, six subjects received estetrol treatment and two subjects received placebo.
Estetrol and placebo medication was formulated as a solution (propylene glycol/water mixture) and was delivered in separate bottles for each volunteer. Bottles contained 1 mg or 10 mg estetrol per 50 ml for subjects of the groups that received 1 mg or 10 mg estetrol and 100 mg per 200 ml for the group receiving 100 mg estetrol.
(§2) Screening took place within two weeks before investigational drug administration. During and after drug administration, subjects were admitted to a Clinical Pharmacology Unit for approximately 60 hours for intensive safety monitoring. Safety and tolerability were documented by monitoring (serious) adverse events, physical examinations including vital signs, and safety laboratory assessments (hematology, biochemistry, urinalysis). Frequent blood sampling (within the range of 15 minutes to 168 hours) was performed to assess estetrol plasma concentration and pharmacokinetic variables. For this, plasma samples were subjected to liquid-liquid extraction (hexane and diethyl ether) and further subjected to HPLC analysis (Perkin Elmer 200) and tandem mass spectrometry using a PE Sciex 4000 tandem mass spectrometer and APCI interface. With each sample batch, a calibration curve with 6 calibrators was recorded. The calibration curve was calculated using linear regression (correlation coefficient >0.98), which permitted quantification of estetrol plasma concentrations.

[3] = safety and tolerability of single oral doses of estetrol in healthy postmenopausal volunteers; assay type: in vivo, human
Procedure: as §1, §2

[4] = tested on: angina pectoris induced by coronary artery disease; assay: clinical trial of on demand oral estetrol versus placebo in angina pectoris; assay type: in vivo, human; details: 100 mg per dose
Procedure: A clinical trial is conducted with single dose, on demand oral estetrol administration of 100 mg in subjects suffering from documented angina pectoris and is compared to placebo treatment. Additionally, patients in this trial are offered to use their standard on demand medication, e.g. nitroglycerin. Hundred patients, males and females, with a diagnosis of angina pectoris induced by coronary artery disease, substantiated by positive dynamic tests of myocardial ischaemia, participate in the clinical trial. Patients are selected according to the following inclusion (I) and exclusion (E) criteria: Patients with clear angina pectoris diagnosis (I), patients having chest pain attacks more than two times a week (I). Patients with active myocardial infarct or other cardiopulmonary heart disease, such as severe psychoneurosis, menopausal syndrome and chest pain caused by cervical spondylopathy (E), patients of angina pectoris combined with hypertension (bloodpressure >24/14.87 Kpa) (E), patients of severe cardiopulmonary function deficiency, severe arrhythmia, abnormal liver and renal function and/or hematopoietic disease (E), breast-feeding women and patients with a known history of allergic disease (E), patients younger than 18 or older than 70 (E).
The diagnostic standard for angina pectoris severity is used to describe baseline patient characteristics and subsequently to monitor treatment efficacy (see below).
Low-grade: Typical attack of angina pectoris, which usually lasts a few minutes and occurs 1-3 times a day. The attack is not severe, but the patient sometimes needs to take nitroglycerin. Mid-grade: Angina attack occurs more than 3 times everyday and lasts several to ten minutes every time. The pain is more severe than that of the low-grade attack and the patient generally needs sublingual nitroglycerin. High-grade: Angina attack occurs frequently daily. It lasts longer and more seriously. Routine life is affected. The patient needs to use nitroglycerin frequently.
The diagnostic standard for angina pectoris types is used to describe baseline characteristics and classify patient types.
Exertionally-induced angina pectoris: The transient attack of chest pain is caused typically by exertion or other conditions that increase myocardial oxygen demands. The pain normally disappears rapidly after rest or administration of sublingual nitroglycerin. Spontaneous angina pectoris: The attack of chest pain is not obviously related to increase of myocardial oxygen consumption. Compared with tiredness-induced angina pectoris, the pain lasts longer and is more severe. It can not be easily alleviated by nitroglycerin. Mixed Angina Pectoris: Spontaneous angina pectoris can come with tiredness-induced angina pectoris and is classified as mixed angina pectoris. […]

[5] = tested on: migraine; assay: double-blind, placebo-controlled, multiple attack clinical study of on demand oral estetrol in migraine; assay type: in vivo, human
Procedure: A double-blind, placebo-controlled, multiple attack clinical study is conducted with single dose, on demand oral estetrol administration in adult volunteers (20 females and 20 males) each of whom is seeking migraine relief. Participating subjects show at least a 1-year history of migraine as is defined by International Headache Society criteria (IHS; Headache Classification Committee of the International Headache Society, 1988, Cephalalgia 8 (Suppl. 7):19-28) and report regularly occurring migraines with episodes of pain, photophobia and nausea. Each participant receives blinded medication in two differently labeled bottles, filled with tablets. One bottle comprises tablets that contain 100 mg estetrol, whilst the other bottle contains identical placebo tablets. Participants are allowed to choose from which bottle to orally ingest a tablet at the moment the first symptoms of a migraine attack become apparent. Patients are asked to keep daily records stating the number of migraine attacks, severity of attacks, duration of attacks and use of medication (bottle 1 or bottle 2) for the entire study period of 2 months.

[6] = tested on: erectile dysfunction primarily due to vascular causes; assay: clinical trial of on demand oral estetrol versus placebo in erectile dysfunction (SFQ); assay type: in vivo, human; details: 100 mg per dose
Procedure: As a novel method single dose, on demand oral estetrol administration is tested to treat erectile dysfunction and compared to placebo treatment. A clinical trial is performed in 20 subjects, experiencing erectile dysfunction that is primarily due to vascular causes and in whom intracavernous injection of either papaverine or phentolamine has been previously proven successful in restoring erectile function. Ten subjects receive estetrol medication (100 mg per dose) and 10 subjects receive placebo medication in this outclinic study. Subjects with mild, moderate as well as severe symptoms of erectile dysfunction are instructed on the use of investigational drug medication, which is preferentially being taken 15 minutes to 2 hours before sexual activity. At the start of the trial, subjects are asked to fill out a baseline Sexual Functioning Questionnaire (SFQ). The SFQ is used as the primary endpoint, since this is a self-administered questionnaire and designed to measure changes in sexual function (Smith et al., 2002, British J. Psych., 181:49-55). It asks detailed questions about libido, physical arousal (erection), masturbation, orgasm and ejaculation. It is designed such that higher scores indicate greater dysfunction. Typically total normal controls scores are less than 14 and sexually disfunctioning patients show total scores of more than 18 (Smith et al., 2002, British J. Psych., 181:49-55). […] At the end of the study period at 4 weeks, subject's responses to SFQ survey questions are compared to SFQ responses at baseline. For separate SFQ variables, a comparison is made of those subjects who initially show a bad baseline score. The results are then pooled and expressed as the percentage of subjects with improvement.

SMILES: C[C@]12CC[C@@H]3c4ccc(O)cc4CC[C@H]3[C@@H]1CC[C@@H]2O [17β-estradiol]
effect on coronary and cerebral arteries [1]: relaxant effect

time of maximum plasma concentrations post-dosing ([2]; 1 mg oral dose group): 15 min | Cmax ([2]; female, human, plasma, 1 mg, 1 mg oral estetrol, read-out: Cmax (median)): 0.52 ng/mL | Cmax ([2]; female, human, plasma, 1 mg, 1 mg oral estetrol, read-out: Cmax (range)): 0.39 to 1.2 ng/mL | Cmax ([2]; female, human, plasma, 10 mg, 10 mg oral estetrol, read-out: Cmax (median)): 9.4 ng/mL | Cmax ([2]; female, human, plasma, 10 mg, 10 mg oral estetrol, read-out: Cmax (range)): 5.4 to 11.6 ng/mL | Cmax ([2]; female, human, plasma, 100 mg, 100 mg oral estetrol, read-out: Cmax (median)): 148 ng/mL | Cmax ([2]; female, human, plasma, 100 mg, 100 mg oral estetrol, read-out: Cmax (range)): 119 to 213 ng/mL | half-life ([2]; female, human, plasma, single oral dose, final elimination phase, read-out: terminal half-life (converted)): ~28 h | gastro-intestinal absorption ([2]; oral dosing 1, 10 and 100 mg): good gastro-intestinal absorption | inter-subject variability of pharmacokinetic profile ([2]; oral dosing 1, 10 and 100 mg): low inter-subject variability | speed of absorption ([2]; single oral dose): extremely fast | start of slow phase of final elimination post-dosing ([2]; single oral dose): approximately 24 hours
SMILES: C[C@]12CC[C@@H]3c4ccc(O)cc4CC[C@H]3[C@@H]1[C@@H](O)[C@@H](O)[C@@H]2O [estetrol, 1,3,5 (10)-estratrien-3,15α,16α,17β-tetrol]
changes in vital signs, haematology, biochemistry or urinalysis ([3]; 1, 10 and 100 mg estetrol): no clinically significant changes | severe or serious adverse events ([3]; 1, 10 and 100 mg estetrol): No severe or serious adverse events | safety and tolerability profile ([3]; single oral doses of 1, 10 and 100 mg): safe and well tolerated | patient-reported effect on angina pectoris symptoms ([4]; on demand oral): relief of angina pectoris symptoms | side effects versus placebo ([4]; on demand oral, 4 weeks): no obvious side effects | use of nitroglycerin versus placebo arm ([4]; on demand oral, 4 weeks): significantly lower than in the placebo arm | improvement of exercise tolerance, ability to extend the duration of walking and quality of life ([4]; versus placebo): statistically more improvement | headache and relief of migraine symptoms versus baseline analgesic and/or triptan-type medication ([5]; 100 mg estetrol tablets): less headache and more quicker relief of migraine symptoms | side effects directly related to investigational drug ([5]; 100 mg estetrol tablets, on demand, 2 months): No apparent side effects | tablet use by participants, estetrol versus placebo ([5]; free choice between blinded bottles, 2 months): significantly more estetrol containing tablets than placebo tablets | improvement in satisfaction with overall sex life versus placebo ([6]; SFQ at 4 weeks): more subjects report improvement | percentage of subjects with improvement in the ability to develop and maintain erections versus placebo ([6]; SFQ at 4 weeks versus baseline): higher percentage of subjects that show improvement | tolerability ([6]; on demand oral, 4 weeks): well tolerated
